The values below come from patent US20080207708A1, “Oxazole and Thiazole Compounds and Their Use in the Treatment of Pge2 Mediated Disorders” (GLAXO GROUP LIMITED, priority 2005, published 2008).

Where a name gives a salt, the structure may show the parent alone.

The target in assay [1] is T1, EP1 receptors (Homo sapiens, UniProt P34995).
T1 sequence (P34995 1-402): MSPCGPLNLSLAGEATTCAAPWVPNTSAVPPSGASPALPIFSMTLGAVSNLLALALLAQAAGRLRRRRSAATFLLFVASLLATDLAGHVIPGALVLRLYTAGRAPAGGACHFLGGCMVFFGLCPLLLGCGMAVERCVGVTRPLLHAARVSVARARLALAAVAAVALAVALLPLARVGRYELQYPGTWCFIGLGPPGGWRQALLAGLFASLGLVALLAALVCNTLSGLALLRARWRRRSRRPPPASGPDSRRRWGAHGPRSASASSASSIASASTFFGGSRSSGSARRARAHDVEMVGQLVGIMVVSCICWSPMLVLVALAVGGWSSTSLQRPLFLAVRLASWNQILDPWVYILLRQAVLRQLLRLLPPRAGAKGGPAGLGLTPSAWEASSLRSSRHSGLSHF
As to the kind of experiment: human EP1 calcium mobilisation assay (CHO-K1 cells, FLIPR, PGE2). The format is cell-based. Set-up: expressed in transfected cells; host or cells: CHO-K1 cells, pCIN vector. Conditions: free bases or sodium salts; averages of a number of experiments; read-out: functional pKi value, human EP1 calcium mobilisation assay (converted). An outline of the steps:
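CHO-K1 cells stably transfected with human EP1 cDNA, loaded with Fluo-4 AM after 24 h culture at 37° C. Compounds added first, then PGE2; antagonism read as inhibition of PGE2-induced intracellular calcium rise on FLIPR. pIC50 taken as concentration giving half-maximal inhibition, from curve fitting.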
For orientation: Calcium assays in cells follow changes in intracellular calcium, usually with a dye or a luminescent sensor.

Assay [2] has as its target T1, EP1 receptors. The experiment in a line: Binding assay for the human prostanoid EP1 receptor (competition with [3H]-PGE2). Details: expressed in transfected cells; host or cells: CHO-K1 cells, membrane fraction. The conditions noted are these: [3H]-PGE2 competition; averages of a number of experiments; read-out: pIC50 value, binding assay for the human prostanoid EP1 receptor (converted). Summed up:
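Membranes from CHO-K1 cells stably expressing human EP1 incubated with compounds and [3H]-PGE2 (3 nM final) for 30 min at 30° C in MES buffer with EDTA and MgCl2, pH 6. Bound radioactivity measured after filtration; IC50 from nonlinear fit of specific binding inhibition.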

`O=C(Cc1ccccc1)Nc1csc(Cc2cc(Cl)ccc2OCc2ccccc2)n1` [Example 130, N-[2-({5-Chloro-2-[(phenylmethyl)oxy]phenyl}methyl)-1,3-thiazol-4-yl]-2-phenylacetamide]: in assay [1], the Ki was less than 1000 nM. Also, the IC50 in assay [2] was not above 1000 nM.
In the case of `Clc1ccc(OCc2ccccc2)c(Cc2nc(-c3nc4ccccc4[nH]3)cs2)c1` [Example 131, 2-[2-({5-Chloro-2-[(phenylmethyl)oxy]phenyl}methyl)-1,3-thiazol-4-yl]-1H-benzimidazole], in assay [1], the Ki was less than 1000 nM. Besides, the IC50 in assay [2] is not above 1000 nM.
Turning to `CC(C)COc1ccc(Cl)cc1Cc1nc(-c2nc3ncccc3[nH]2)cs1` [Example 132, 2-[2-({5-Chloro-2-[(2-methyl-propyl)oxy]-phenyl}methyl)-1,3-thiazol-4-yl]-1H-imidazo[4,5-b]pyridine], in assay [1], the Ki is less than 1000 nM. Also, the IC50 in assay [2] is not above 31.6 nM.
Consider `Clc1ccc(OCc2ccccc2)c(Cc2nc(-c3nc4ncccc4[nH]3)cs2)c1` [Example 133, 2-[2-({5-Chloro-2-[(phenylmethyl)oxy]phenyl}methyl)-1,3-thiazol-4-yl]-1H-imidazo[4,5-b]pyridine], for which, in assay [1], the Ki is less than 1000 nM. Further, in assay [2], the IC50 was not above 1000 nM.
For `Clc1ccc(OCc2ccccc2)c(Cc2nc(-c3nc4ncc(Br)cc4[nH]3)cs2)c1` [Example 134, 6-Bromo-2-[2-({5-chloro-2-[(phenylmethyl)oxy]phenyl}methyl)-1,3-thiazol-4-yl]-1H-imidazo[4,5-b]pyridine] the same measures were less than 1000 nM and not above 1000 nM.
For the compound `CC(C)COc1ccc(Cl)cc1Cc1nc(-c2nc3cnccc3[nH]2)cs1` [Example 135, 2-[2-({5-Chloro-2-[(2-methyl-propyl)oxy]-phenyl}methyl)-1,3-thiazol-4-yl]-1H-imidazo[4,5-c]pyridinehydrochloride], the Ki in assay [1] was not above 31.6 nM. The IC50 in assay [2] was not above 31.6 nM.
For `CC(C)COc1ccc(Cl)cc1Cc1nc(-c2nc3nccnc3[nH]2)cs1` [Example 136, 2-[2-({5-Chloro-2-[(2-methyl-propyl)oxy]-phenyl}methyl)-1,3-thiazol-4-yl]-1H-imidazo[4,5-b]pyrazinehydrochloride], the Ki in assay [1] is not above 31.6 nM. Besides, the IC50 in assay [2] is not above 31.6 nM.
Take `Clc1ccc(OCc2ccccc2)c(Cc2nc(-c3nc4ccc(N5CCCC5)nc4[nH]3)cs2)c1` [Example 137, 2-[2-({5-Chloro-2-[(phenylmethyl)oxy]phenyl}methyl)-1,3-thiazol-4-yl]-5-(1-pyrrolidinyl)-1H-imidazo[4,5-b]pyridinehydrochloride]: in assay [1], the Ki is less than 1000 nM. Also, the IC50 in assay [2] is not above 1000 nM.
On to `O=C(O)c1cccc2nc(-c3csc(Cc4cc(Cl)ccc4OCc4ccccc4)n3)[nH]c12` [Example 139, 2-[2-({5-Chloro-2-[(phenylmethyl)oxy]phenyl}methyl)-1,3-thiazol-4-yl]-1H-benzimidazole-4-carboxylic acid], for which the Ki in assay [1] is less than 1000 nM. For the same compound, the IC50 in assay [2] was not above 1000 nM.
For `CC(C)COc1ccc(Cl)cc1Cc1nc(-c2nc3ccc(Cl)nc3[nH]2)cs1` [Example 140, 5-Chloro-2-[2-({5-chloro-2-[(2-methylpropyl)oxy]phenyl}methyl)-1,3-thiazol-4-yl]-1H-imidazo[4,5-b]pyridinehydrochloride], in assay [1], the Ki was less than 1000 nM. Further, in assay [2], the IC50 was not above 31.6 nM.
Take `CC(C)COc1ccc(Cl)cc1C(F)(F)c1nc(-c2nc3ccccc3[nH]2)cs1` [Example 141, 2-{2-[{5-chloro-2-[(2-methylpropyl)oxy]phenyl}(difluoro)methyl]-1,3-thiazol-4-yl}-1H-benzimidazole hydrochloride]: in assay [1], the Ki was more than 1000 nM. Also, the IC50 in assay [2] is not above 1000 nM.
Take `CC(C)COc1ccc(Cl)cc1Cc1nc(-c2nc3ccc(N4CCN(C)CC4)cc3[nH]2)cs1` [Example 142, 2-[2-({5-Chloro-2-[(2-methylpropyl)oxy]phenyl}methyl)-1,3-thiazol-4-yl]-5-(4-methyl-1-piperazinyl)-1H-benzimidazole hydrochloride]: the Ki in assay [1] is less than 1000 nM. The IC50 in assay [2] is not above 31.6 nM.
